Results from patent US8709821B2, “Luminescent substrate for liciferase” (The University of Electro-Communications, priority 2008, dated 2014).
Values joined by “and” are separate entries in the source; they are usually repeats but may differ in a detail not shown here. Identical values can stand only once.

Key:
[1] = target: T1, luciferase (derived from Photinus pyralis of North America product firefly) (Photinus pyralis, UniProt P08659); assay: Measurement of the bioluminescence spectra (luminescent spectrum of substrate with luciferase, ATP-Mg); assay type: biochemical; conditions: for luminescent wavelength (maximum wavelength of the bioluminescence spectrum): potassium phosphate buffer pH 8.0, substrate solution 2.5 mM, exposure 60 seconds; for color of the luminescence: FIG. 1
T1 construct: purchased Sigma-Aldrich Corporation or Promega KK
T1 sequence (P08659 whole entry): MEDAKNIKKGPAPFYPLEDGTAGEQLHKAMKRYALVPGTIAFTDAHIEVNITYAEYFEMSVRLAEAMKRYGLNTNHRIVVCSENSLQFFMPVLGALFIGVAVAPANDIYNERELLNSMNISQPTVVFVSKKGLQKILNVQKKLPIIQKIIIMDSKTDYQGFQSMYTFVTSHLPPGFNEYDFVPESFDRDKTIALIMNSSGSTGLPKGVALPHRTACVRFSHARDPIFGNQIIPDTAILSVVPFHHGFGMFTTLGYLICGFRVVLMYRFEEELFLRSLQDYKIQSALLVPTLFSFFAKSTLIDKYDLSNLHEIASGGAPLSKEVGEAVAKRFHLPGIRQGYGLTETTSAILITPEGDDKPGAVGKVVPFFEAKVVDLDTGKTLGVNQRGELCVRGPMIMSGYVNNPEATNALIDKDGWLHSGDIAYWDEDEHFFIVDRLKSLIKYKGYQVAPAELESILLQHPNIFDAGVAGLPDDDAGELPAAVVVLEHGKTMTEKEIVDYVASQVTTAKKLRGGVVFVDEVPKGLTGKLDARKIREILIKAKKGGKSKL
Protocol: Measurement of Luminescent Spectrum
They were measured using feeble luminescence fluorescent spectra device AB-1850 manufactured by ATTO Co., Ltd. All the measured spectra were the spectra which calibrated with the characteristic of the detector.
For the luciferase (derived from Photinus pyralis of North America product firefly), was used the recombination type manufactured by Sigma-Aldrich Corporation or Promega KK.
For ATP-Mg the product manufactured by Sigma-Aldrich Corporation was used.
The Substrate was weighted with an electronic balance, and it was diluted. The phosphate-buffered saline (50 mM, pH 6.0) was used in the case of the chemiluminescence measurement, and t-butanol was used in the case of the bioluminescence as a solvent.
The luciferase was diluted with Tris-HCl buffer solution (50 mM, pH 8.0 s) to become 1 μg/μl and divided. This was used as stocked solution, so that was diluted to be used each time. Note that, the stock solutions were stored in a freezer of −80 degrees Celsius.
ATP-Mg was diluted in the ultra pure water.
The solution of a potassium phosphate buffer (0.5 M, pH 8.0, 20 μl), the solution of substrate (2.5 mM, 20 μl) and enzyme solution (20 μl), then ATP-Mg solution (ten mM, 40 μl) were mixed in a 200 μL of a polystyrene tube, and measured the luminescent spectrum. The enzyme solution was used at the concentration of 17 μM, provided that enzymes at 1.7 μM and at 170 μM were used in the firefly luciferin (1) and the phenol type luciferin respectively. The exposure time for the measurement of the luminescent spectrum was 60 seconds, provided that the firefly luciferin was five seconds.

[2] = luciferin derivative, patent document 1; cited from earlier work
[3] = Photinus pyralis luciferase, ATP-Mg

Row | Compound | melting point | luminescent wavelength (maximum wavelength of the bioluminescence spectrum) [1, 3] | color of the luminescence [1] | further results
1 | O=C(O)[C@H]1CSC(/C=C/c2cccc(O)c2)=N1 [analogs 9] | 163 to 165 °C (dec.) |  |  | luminescent activity as substrate ([1]; Photinus pyralis luciferase, ATP-Mg, pH 8.0): did not luminescent
2 | O=C(O)[C@H]1CSC(c2ccc(O)cc2)=N1 [analogs 7] | 200 to 204 °C (dec.) | 415 nm |  | 
3 | CN(C)c1ccc(C2=N[C@@H](C(=O)O)CS2)cc1 [analogs IV, dimethyl aniline type luciferin] |  |  | red | luminescent wavelength (maximum wavelength of the bioluminescence spectrum) ([1]; Photinus pyralis luciferase, ATP-Mg, listed as IV): 680 nm and 445 nm; luminescent wavelength (maximum wavelength of the bioluminescence spectrum) ([1]; Photinus pyralis luciferase, ATP-Mg, listed as dimethyl aniline type luciferin): about 445 nm
4 | O=C(O)[C@H]1CSC(/C=C/c2ccc(O)cc2)=N1 [analogs 8] | 138 to 140 °C (dec.) | 520 nm |  | 
5 | CN(C)c1ccc(/C=C/C=C/C2=N[C@@H](C(=O)O)CS2)cc1 [analogs II, dimethyl aniline-diene type luciferin] |  | 445 nm and > 680 nm | blue | 
6 | Nc1ccc2nc(C3=N[C@@H](C(=O)O)CS3)sc2c1 [Aminoluciferin] |  |  |  | luminescence wavelength [2]: About 610 nm
7 | CN(C)c1ccc(/C=C/C2=N[C@@H](C(=O)O)CS2)cc1 [analogs III, dimethyl aniline-monoene type luciferin] |  | 565 nm | yellow green | 
